Test results: the Deep4Chem optical property database
Several values for one entry are separate records, joined by “and”; a condition that tells them apart may be missing. Equal values may be shown once.

Assay: solvent given as SMILES

Question: With `CN(C)c1ccc(C(=O)Nc2cccc(Br)c2)cc1` as the compound, how does the absorption maximum (in C1CCCCC1) read?
Answer: 310 nm

Question: And the absorption maximum (in C1CCOC1)?
Answer: 317 nm

Question: And the absorption maximum (in CC#N)?
Answer: 318 nm

Question: What about the absorption maximum (in CCOCC) of the same compound?
Answer: 312 nm

Question: With `C(/C=C/Nc1cccc2ccccc12)=[NH+]c1cccc2ccccc12` as the compound, how does the absorption maximum (in CS(C)=O) read?
Answer: 391 nm

Question: What does the source list for `c1ccc2c(c1)c1ccccc1c1[nH]c(-c3ccc(-c4nc5c6ccccc6c6ccccc6c5[nH]4)cc3)nc21`?
Answer: absorption maximum (in C1CCOC1): 411 nm; absorption maximum (in CC#N): 412 nm; absorption maximum (in CCO): 410 nm; absorption maximum (in CS(C)=O): 410 nm; absorption maximum (in ClCCl): 413 nm

Question: For `CCCC1(CCC)c2ccccc2-c2ccc(-c3ccc(OC)cc3)cc21`, which absorption maximum (in C1CCCCC1) is on record?
Answer: 315 nm

Question: With `COC(=O)c1ccc(C2=C3C(C)=CC(C)=[N+]3[B-](F)(F)n3c(/C=C/c4c[nH]cn4)cc(C)c32)cc1` as the compound, how does the absorption maximum (in ClC(Cl)Cl) read?
Answer: 572 nm

Question: For `CCOC(=O)c1c(-c2cc3cc(OC)ccc3oc2=O)nn(-c2cccc(C)c2)c1C(=O)OCC`, which absorption maximum (in ClCCl) is on record?
Answer: 351 nm

Question: With `C=CCOc1ccc(-c2nc3cc(C(NC(=O)OC(C)(C)C)C(=O)OC)ccc3o2)cc1` (stereo unspecified) as the compound, how does the absorption maximum (in CC1CCCCC1) read?
Answer: 324 nm

Question: And the absorption maximum (in CC#N)?
Answer: 309 nm

Question: What about the absorption maximum (in CO) of the same compound?
Answer: 309 nm

Question: Which absorption maximum (in CC#N) does the source give for `Cc1cc(-c2ccccc2)nc2c1ccc1nc(-c3ccccc3)cn12` here?
Answer: 347 nm

Question: What about the absorption maximum (in CCCCOC(C)=O) of the same compound?
Answer: 350 nm

Question: What about the absorption maximum (in CCOC(C)=O) of the same compound?
Answer: 352 nm

Question: What about the absorption maximum (in CO) of the same compound?
Answer: 345 nm

Question: What about the absorption maximum (in ClC(Cl)Cl) of the same compound?
Answer: 350 nm

Question: And the absorption maximum (in ClCCl)?
Answer: 348 nm

Question: What about the absorption maximum (in c1ccccc1) of the same compound?
Answer: 351 nm

Question: With `COC(=O)[C@H](Cc1ccc2oc3c(c2c1)=CC1=C(c2ccc(OC)cc2)c2cc4c5cc(C[C@H](NC(=O)OC(C)(C)C)C(=O)OC)ccc5oc4n2[B-](F)(F)[N+]=31)NC(=O)OC(C)(C)C` as the compound, how does the absorption maximum (in C1CCCCC1) read?
Answer: 586.5 nm

Question: What about the absorption maximum (in CCOC(C)=O) of the same compound?
Answer: 581.5 nm

Question: And the absorption maximum (in CO)?
Answer: 580 nm

Question: With `O=c1oc2ccccc2cc1-c1cc2ccccc2o1` as the compound, how does the absorption maximum (in CC#N) read?
Answer: 366 nm

Question: What about the absorption maximum (in CCOC(C)=O) of the same compound?
Answer: 368 nm

Question: And the absorption maximum (in CS(C)=O)?
Answer: 371 nm

Question: What about the absorption maximum (in Cc1ccccc1) of the same compound?
Answer: 373 nm

Question: What about the absorption maximum (in O) of the same compound?
Answer: 365 nm

Question: Which results are given for `CCCCCCCCCCCCC(CCCCCCCCCC)Cn1c2cc(/C=C/C=C/c3nc4ccccc4s3)c3cccc4c5cccc6c(/C=C/C=C/c7nc8ccccc8s7)cc1c(c65)c2c34` (stereo unspecified)?
Answer: absorption maximum (in C1CCCCC1): 530 nm; absorption maximum (in CC#N): 528 nm; absorption maximum (in Cc1ccccc1): 538 nm; absorption maximum (in ClCCl): 538 nm

Question: Which absorption maximum (in C1CCOC1) does the source give for `N#C/C(=C\c1ccc(C=C(c2ccccc2)c2ccccc2)cc1)c1ccccc1` here?
Answer: 366 nm

Question: With `CC(C)(C)c1ccc(C#Cc2nc(C#Cc3ccc(C(C)(C)C)cc3)c(C#Cc3ccc(C(C)(C)C)cc3)c(C#Cc3ccc(C(C)(C)C)cc3)c2C#Cc2ccc(C(C)(C)C)cc2)cc1` as the compound, how does the absorption maximum (in ClCCl) read?
Answer: 421 nm

Question: Which absorption maximum (in C1CCCCC1) does the source give for `CC1=[N+]2C(=C(c3ccc4c(c3)Cc3ccccc3-4)c3ccc(C)n3[B-]2(F)F)C=C1c1cc2n(c1)[B-](F)(F)[N+]1=CC=CC1=C2c1c(C)cc(C)cc1C` here?
Answer: 597.5 nm

Question: What about the absorption maximum (in CCOC(C)=O) of the same compound?
Answer: 598.5 nm

Question: With `CCOC(=O)COc1ccc(/C=C/C2=C3c4ccccc4C(c4[nH]c(C)cc4C)=[N+]3[B-](F)(F)n3c(/C=C/c4ccc(OCC(=O)OCC)cc4)cc(C)c32)cc1` as the compound, how does the absorption maximum (in C1CCOC1) read?
Answer: 676 nm

Question: What about the absorption maximum (in CC#N) of the same compound?
Answer: 667 nm

Question: What about the absorption maximum (in CCCCCC) of the same compound?
Answer: 674 nm

Question: And the absorption maximum (in CO)?
Answer: 668 nm

Question: And the absorption maximum (in Cc1ccccc1)?
Answer: 683 nm

Question: And the absorption maximum (in ClCCl)?
Answer: 676 nm

Question: For `Cc1cc(C)c(B(c2ccc(-c3ccc(-c4nc5c6ccccc6c6ccccc6c5[nH]4)cc3)cc2)c2c(C)cc(C)cc2C)c(C)c1`, which absorption maximum (in C1CCOC1) is on record?
Answer: 375 nm

Question: And the absorption maximum (in CC(C)=O)?
Answer: 373 nm

Question: And the absorption maximum (in CS(C)=O)?
Answer: 378 nm

Question: What about the absorption maximum (in Cc1ccccc1) of the same compound?
Answer: 374 nm

Question: And the absorption maximum (in ClCCl)?
Answer: 371 nm

Question: For `CCCCCCOc1ccc2c(c1)C1=[N+]3C2=Cc2c4ccc(OCCCCCC)cc4c4n2[B-]3(Oc2ccccc21)Oc1ccccc1-4` (stereo unspecified), which absorption maximum (in C1CCOC1) is on record?
Answer: 748 nm

Question: With `Cc1ccc(C2=C3C=c4c(oc5ccccc45)=[N+]3[B-](F)(F)n3c2cc2c4ccccc4oc23)cc1` as the compound, how does the absorption maximum (in C1CCCCC1) read?
Answer: 584.5 nm

Question: What about the absorption maximum (in C1CCOC1) of the same compound?
Answer: 581.5 nm

Question: And the absorption maximum (in CC#N)?
Answer: 578 nm

Question: What about the absorption maximum (in CCOC(C)=O) of the same compound?
Answer: 579.5 nm

Question: And the absorption maximum (in CN(C)C=O)?
Answer: 581.5 nm

Question: And the absorption maximum (in CO)?
Answer: 578 nm

Question: What about the absorption maximum (in Cc1ccccc1) of the same compound?
Answer: 588 nm

Question: And the absorption maximum (in ClCCl)?
Answer: 584 nm and 583 nm

Question: With `CCCC(=O)c1c2c(c(C(=O)CCC)c3c1OC(CC(=O)OC)(C(=O)O)O3)OCO2` as the compound, how does the absorption maximum (in CC#N) read?
Answer: 424 nm

Question: And the absorption maximum (in CCO)?
Answer: 445 nm

Question: And the absorption maximum (in CO)?
Answer: 442 nm

Question: What about the absorption maximum (in ClCCl) of the same compound?
Answer: 423 nm

Question: What about the absorption maximum (in O) of the same compound?
Answer: 448 nm

Question: For `Cc1ccc(C)c2nc3c(=O)[nH]c(=O)[nH]c3nc12`, which absorption maximum (in CC#N) is on record?
Answer: 388 nm

Question: What does the source list for `CC(C)(C)C1Nc2c(Cl)cc(Cl)cc2C(=O)N1Cc1ccccc1` (stereo unspecified)?
Answer: absorption maximum (in CC#N): 360 nm; absorption maximum (in CCCCCCCCCCCCCCCC): 350 nm; absorption maximum (in CO): 367 nm; absorption maximum (in ClC(Cl)Cl): 357 nm; absorption maximum (in c1ccccc1): 355 nm

Question: For `CC(C)c1cc(C(C)C)c(-c2ccc(-n3c4ccccc4n4c5ccccc5nc34)nc2)c(C(C)C)c1`, which absorption maximum (in Cc1ccccc1) is on record?
Answer: 345 nm

Question: For `COc1ccc2c3ccc(OC)cc3n(-c3ccc(-c4nnc(-c5c(C(C)C)cc(C(C)C)cc5C(C)C)o4)cc3)c2c1`, which absorption maximum (in Cc1ccccc1) is on record?
Answer: 319 nm

Question: For `c1ccc(-c2nc(-c3ccc(-c4cccs4)s3)[nH]c2-c2ccccc2)cc1`, which absorption maximum (in CC#N) is on record?
Answer: 365 nm

Question: With `c1ccc(-n2c3ccccc3c3cc(-c4ccc5nc(-c6ccc(-n7c8ccccc8c8ccccc87)cc6)nn5c4)ccc32)cc1` as the compound, how does the absorption maximum (in C1CCOC1) read?
Answer: 340 nm

Question: With `c1ccc(-c2nc3sc4ccccc4c3s2)cc1` as the compound, how does the absorption maximum (in CS(C)=O) read?
Answer: 348 nm

Question: Which absorption maximum (in CN(C)C=O) does the source give for `S=c1[nH]nc(-c2ccc(/C=C/c3ccc(-c4n[nH]c(=S)o4)cc3)cc2)o1` here?
Answer: 334 nm

Question: For `Cc1ccc(N(c2ccc(C)cc2)c2ccc(-c3c4ccccc4c(-c4ccc(N(c5ccc(C)cc5)c5ccc(C)cc5)cc4)c4nsnc34)cc2)cc1`, which absorption maximum (in Cc1ccccc1) is on record?
Answer: 538 nm

Question: And the absorption maximum (in ClCCl)?
Answer: 536 nm

Question: With `CCCCCCOc1cc(C=O)c(OCCCCCC)cc1C=O` as the compound, how does the absorption maximum (in ClCCl) read?
Answer: 403 nm

Question: Which results are given for `CC(C)(C)c1ccc2c(c1)c1cc(C(C)(C)C)ccc1n2-c1ccc(C#Cc2cccc(C#Cc3ccc(-n4c5ccc(C(C)(C)C)cc5c5cc(C(C)(C)C)ccc54)cc3)c2)cc1`?
Answer: absorption maximum (in CC#N): 340 nm; absorption maximum (in CCCCC): 340 nm; absorption maximum (in CO): 338 nm; absorption maximum (in Cc1ccccc1): 345 nm; absorption maximum (in ClC(Cl)Cl): 344 nm; absorption maximum (in ClCCl): 345 nm

Question: Which absorption maximum (in CC(C)=O) does the source give for `CN(C)c1ccc(/C=C/c2cc3ccccc3c[n+]2C)cc1` here?
Answer: 425 nm

Question: What about the absorption maximum (in ClCCl) of the same compound?
Answer: 441 nm

Question: For `COc1cc(OC)cc(C2=C3C(C)=C(I)C(C)=[N+]3[B-](F)(F)n3c(/C=C/c4ccsc4)c(I)c(C)c32)c1`, which absorption maximum (in C1CCOC1) is on record?
Answer: 598 nm

Question: What about the absorption maximum (in CS(C)=O) of the same compound?
Answer: 604 nm

Question: What about the absorption maximum (in ClCCl) of the same compound?
Answer: 599 nm

Question: For `CCC1=C(C)C(=O)n2c1cc1c(C)c(CCC(=O)O)c(C)n1c2=O`, which absorption maximum (in CC#N) is on record?
Answer: 408 nm

Question: What about the absorption maximum (in CC(C)=O) of the same compound?
Answer: 413 nm

Question: And the absorption maximum (in CO)?
Answer: 425 nm

Question: And the absorption maximum (in CS(C)=O)?
Answer: 426 nm

Question: What about the absorption maximum (in ClC(Cl)Cl) of the same compound?
Answer: 428 nm

Question: And the absorption maximum (in c1ccccc1)?
Answer: 421 nm

Question: With `CCC1(CC)c2ccccc2-c2ccc(C#Cc3ccc4ccc5cccc6ccc3c4c56)cc21` as the compound, how does the absorption maximum (in C1CCCCC1) read?
Answer: 401 nm

Question: What about the absorption maximum (in C1CCOC1) of the same compound?
Answer: 402 nm

Question: What about the absorption maximum (in CC#N) of the same compound?
Answer: 399 nm

Question: What about the absorption maximum (in CCOC(C)=O) of the same compound?
Answer: 400 nm

Question: What about the absorption maximum (in CN(C)C=O) of the same compound?
Answer: 404 nm

Question: And the absorption maximum (in Cc1ccccc1)?
Answer: 405 nm

Question: What about the absorption maximum (in ClC(Cl)Cl) of the same compound?
Answer: 404 nm

Question: What about the absorption maximum (in ClCCl) of the same compound?
Answer: 403 nm

Question: Which absorption maximum (in C1CCOC1) does the source give for `N#Cc1c(N2CCCCC2)cc(-c2ccccc2)c2c1-c1ccccc1C2=O` here?
Answer: 392 nm

Question: For `C[Si]1(c2ccccc2)C(c2ccc3c4ccccc4n(-c4ccccc4)c3c2)=C(c2ccccc2)C(c2ccccc2)=C1c1ccc2c3ccccc3n(-c3ccccc3)c2c1`, which absorption maximum (in C1CCOC1) is on record?
Answer: 398 nm
